Reference: US10285989B2, “Pyrimidinone amide compounds as PDE2 inhibitors” (Merck Sharp & Dohme Corp., priority 2015, dated 2019)
Like-named read-outs stand apart in the source and are kept apart here.

Tests used:
[1] = biological target: P-glycoprotein (P-gp, rat Mdr1a) (Rattus norvegicus, UniProt Q6PSM0); assay: P-gp transport, experimental BA/AB ratio, rat LLC-Mdr1a; assay type: in vitro ADME; conditions: LLC-PK1; rat LLC-Mdrla; 1 μM substrate concentration
From the text: (§1) See Doan et al. “Passive permeability and P-glycoprotein-mediated efflux differentiate central nervous system (CNS) and non-CNS marketed drugs”, J. Pharm. Exper. […] Desirable human BA/AB ratio is less than 2.0. […] See, for example, Desai, et al. Integration of in Silico and in Vitro Tools for Scaffold Optimization during Drug Discovery: Predicting P-glycoprotein Efflux” Mol. Pharmac.

human PDE2A1 = human PDE2A1 (Homo sapiens (Human), UniProt O00408); assay: PDE2 IMAP FP inhibition assay, human PDE2A1 (selectivity panel format); assay type: biochemical
Sequence of human PDE2A1 (O00408 other isoform, or with tags, fused parts or gaps): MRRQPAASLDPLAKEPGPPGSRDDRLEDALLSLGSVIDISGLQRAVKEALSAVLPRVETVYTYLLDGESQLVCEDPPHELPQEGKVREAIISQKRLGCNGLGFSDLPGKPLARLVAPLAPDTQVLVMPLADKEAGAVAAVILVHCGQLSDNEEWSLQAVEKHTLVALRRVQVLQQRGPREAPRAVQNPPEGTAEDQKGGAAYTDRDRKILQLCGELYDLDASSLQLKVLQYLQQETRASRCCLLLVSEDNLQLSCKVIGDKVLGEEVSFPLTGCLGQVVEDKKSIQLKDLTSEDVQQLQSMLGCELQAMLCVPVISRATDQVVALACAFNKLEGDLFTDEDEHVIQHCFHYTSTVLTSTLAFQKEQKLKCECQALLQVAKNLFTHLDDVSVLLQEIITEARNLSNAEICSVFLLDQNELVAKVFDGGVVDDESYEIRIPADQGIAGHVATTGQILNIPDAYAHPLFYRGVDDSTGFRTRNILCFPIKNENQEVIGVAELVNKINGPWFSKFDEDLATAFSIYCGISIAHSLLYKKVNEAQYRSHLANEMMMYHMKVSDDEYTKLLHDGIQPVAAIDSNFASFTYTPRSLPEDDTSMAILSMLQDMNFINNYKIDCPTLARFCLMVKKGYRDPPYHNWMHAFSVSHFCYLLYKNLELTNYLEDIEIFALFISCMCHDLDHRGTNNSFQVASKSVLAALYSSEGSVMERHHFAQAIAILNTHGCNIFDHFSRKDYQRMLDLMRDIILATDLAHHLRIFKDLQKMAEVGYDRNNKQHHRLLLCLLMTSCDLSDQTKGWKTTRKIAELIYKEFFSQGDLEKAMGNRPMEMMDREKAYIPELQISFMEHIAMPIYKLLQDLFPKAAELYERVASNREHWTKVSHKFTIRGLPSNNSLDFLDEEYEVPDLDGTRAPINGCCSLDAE
Summary of the method: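 Enzyme dosed to give about 20% substrate turnover acts for 60 min at room temperature on 50 nM FAM-cAMP plus 1000 nM cGMP (Tris pH 7.2, MgCl2, DTT, Tween-20 buffer). IMAP binding solution then stops the reaction; after 1 h, polarization is measured from parallel and perpendicular fluorescence.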

Rhesus PDE2A3 = Rhesus PDE2A3 (Macaca mulatta, UniProt B3VTJ2); assay: PDE2 fluorescence polarization (IMAP FP) inhibition assay, rhesus PDE2A3; assay type: biochemical, rhesus macaque
Sequence of Rhesus PDE2A3 (B3VTJ2 1-941): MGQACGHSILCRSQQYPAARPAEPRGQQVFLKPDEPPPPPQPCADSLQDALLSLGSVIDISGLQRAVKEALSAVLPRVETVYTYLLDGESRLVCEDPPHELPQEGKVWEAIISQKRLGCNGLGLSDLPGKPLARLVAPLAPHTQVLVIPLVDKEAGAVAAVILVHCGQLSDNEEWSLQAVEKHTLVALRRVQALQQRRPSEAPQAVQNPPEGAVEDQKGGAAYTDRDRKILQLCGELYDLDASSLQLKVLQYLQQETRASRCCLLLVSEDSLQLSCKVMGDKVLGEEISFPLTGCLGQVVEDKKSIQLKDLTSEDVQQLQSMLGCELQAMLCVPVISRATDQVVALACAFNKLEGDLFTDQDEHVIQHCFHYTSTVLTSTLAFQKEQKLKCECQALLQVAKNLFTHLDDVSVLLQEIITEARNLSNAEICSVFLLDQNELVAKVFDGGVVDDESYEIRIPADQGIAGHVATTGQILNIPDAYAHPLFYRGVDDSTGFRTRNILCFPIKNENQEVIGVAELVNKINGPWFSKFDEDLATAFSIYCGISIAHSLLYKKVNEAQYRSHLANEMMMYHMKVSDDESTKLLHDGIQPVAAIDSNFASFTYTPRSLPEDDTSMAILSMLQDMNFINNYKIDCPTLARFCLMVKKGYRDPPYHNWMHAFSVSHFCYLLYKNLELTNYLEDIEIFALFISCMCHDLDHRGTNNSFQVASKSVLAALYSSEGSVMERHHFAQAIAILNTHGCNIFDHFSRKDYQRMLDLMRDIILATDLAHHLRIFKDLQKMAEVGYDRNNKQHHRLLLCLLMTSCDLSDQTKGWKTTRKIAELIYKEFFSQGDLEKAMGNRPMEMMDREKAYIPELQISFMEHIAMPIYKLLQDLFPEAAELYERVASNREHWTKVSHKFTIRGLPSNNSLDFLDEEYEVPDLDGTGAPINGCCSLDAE

P-glycoprotein (P-gp) = P-glycoprotein (P-gp) (Homo sapiens (Human), UniProt P08183); assay: P-gp transport, experimental BA/AB ratio, human; assay type: in vitro ADME; conditions: LLC-PK1, 1 μM substrate concentration
Sequence of P-glycoprotein (P-gp) (P08183 whole entry): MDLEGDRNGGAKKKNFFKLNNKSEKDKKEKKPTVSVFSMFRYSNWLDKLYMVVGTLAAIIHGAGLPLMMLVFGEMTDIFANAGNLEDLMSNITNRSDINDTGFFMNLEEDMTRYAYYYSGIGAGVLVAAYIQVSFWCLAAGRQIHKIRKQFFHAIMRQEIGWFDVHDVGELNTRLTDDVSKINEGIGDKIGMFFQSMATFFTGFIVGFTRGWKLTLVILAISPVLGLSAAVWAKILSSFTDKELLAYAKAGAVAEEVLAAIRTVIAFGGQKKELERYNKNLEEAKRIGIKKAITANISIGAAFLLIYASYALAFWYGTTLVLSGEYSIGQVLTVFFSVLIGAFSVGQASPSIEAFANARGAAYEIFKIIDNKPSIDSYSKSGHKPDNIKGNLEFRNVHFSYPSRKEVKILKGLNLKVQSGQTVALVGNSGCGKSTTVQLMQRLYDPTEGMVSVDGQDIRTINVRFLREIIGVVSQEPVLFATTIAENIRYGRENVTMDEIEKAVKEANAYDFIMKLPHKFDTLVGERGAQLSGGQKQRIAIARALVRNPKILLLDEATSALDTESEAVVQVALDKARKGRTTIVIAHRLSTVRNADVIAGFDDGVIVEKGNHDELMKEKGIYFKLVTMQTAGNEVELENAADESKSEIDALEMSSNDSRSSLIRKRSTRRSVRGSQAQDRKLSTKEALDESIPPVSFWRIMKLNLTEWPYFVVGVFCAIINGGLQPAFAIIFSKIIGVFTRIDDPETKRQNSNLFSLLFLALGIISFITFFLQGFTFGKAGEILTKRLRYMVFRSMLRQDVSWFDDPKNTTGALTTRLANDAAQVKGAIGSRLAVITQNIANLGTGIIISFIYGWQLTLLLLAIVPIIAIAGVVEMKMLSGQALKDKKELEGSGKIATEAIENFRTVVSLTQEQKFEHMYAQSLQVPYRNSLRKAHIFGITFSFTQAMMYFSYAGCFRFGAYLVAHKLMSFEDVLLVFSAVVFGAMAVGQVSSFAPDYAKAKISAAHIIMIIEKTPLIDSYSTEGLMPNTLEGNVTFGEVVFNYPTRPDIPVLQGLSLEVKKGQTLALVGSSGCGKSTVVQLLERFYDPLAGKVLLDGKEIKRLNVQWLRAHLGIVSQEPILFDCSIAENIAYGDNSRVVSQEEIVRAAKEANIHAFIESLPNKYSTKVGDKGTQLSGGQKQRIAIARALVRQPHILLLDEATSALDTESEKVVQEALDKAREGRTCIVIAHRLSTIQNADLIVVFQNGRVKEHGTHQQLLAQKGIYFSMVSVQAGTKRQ
From the text: as §1

[2] = Lab B, read-out: Human PDE2 Ki (nM) - Lab B
[3] = Lab B, read-out: Rhesus PDE2 Ki (nM) - Lab B
[4] = Lab A, read-out: Rhesus PDE2 Ki (nM) - Lab A
[5] = Lab A, read-out: Human PDE2 Ki (nM) - Lab A

Sequence of P-glycoprotein (P-gp, rat Mdr1a) (Q6PSM0 1-1272): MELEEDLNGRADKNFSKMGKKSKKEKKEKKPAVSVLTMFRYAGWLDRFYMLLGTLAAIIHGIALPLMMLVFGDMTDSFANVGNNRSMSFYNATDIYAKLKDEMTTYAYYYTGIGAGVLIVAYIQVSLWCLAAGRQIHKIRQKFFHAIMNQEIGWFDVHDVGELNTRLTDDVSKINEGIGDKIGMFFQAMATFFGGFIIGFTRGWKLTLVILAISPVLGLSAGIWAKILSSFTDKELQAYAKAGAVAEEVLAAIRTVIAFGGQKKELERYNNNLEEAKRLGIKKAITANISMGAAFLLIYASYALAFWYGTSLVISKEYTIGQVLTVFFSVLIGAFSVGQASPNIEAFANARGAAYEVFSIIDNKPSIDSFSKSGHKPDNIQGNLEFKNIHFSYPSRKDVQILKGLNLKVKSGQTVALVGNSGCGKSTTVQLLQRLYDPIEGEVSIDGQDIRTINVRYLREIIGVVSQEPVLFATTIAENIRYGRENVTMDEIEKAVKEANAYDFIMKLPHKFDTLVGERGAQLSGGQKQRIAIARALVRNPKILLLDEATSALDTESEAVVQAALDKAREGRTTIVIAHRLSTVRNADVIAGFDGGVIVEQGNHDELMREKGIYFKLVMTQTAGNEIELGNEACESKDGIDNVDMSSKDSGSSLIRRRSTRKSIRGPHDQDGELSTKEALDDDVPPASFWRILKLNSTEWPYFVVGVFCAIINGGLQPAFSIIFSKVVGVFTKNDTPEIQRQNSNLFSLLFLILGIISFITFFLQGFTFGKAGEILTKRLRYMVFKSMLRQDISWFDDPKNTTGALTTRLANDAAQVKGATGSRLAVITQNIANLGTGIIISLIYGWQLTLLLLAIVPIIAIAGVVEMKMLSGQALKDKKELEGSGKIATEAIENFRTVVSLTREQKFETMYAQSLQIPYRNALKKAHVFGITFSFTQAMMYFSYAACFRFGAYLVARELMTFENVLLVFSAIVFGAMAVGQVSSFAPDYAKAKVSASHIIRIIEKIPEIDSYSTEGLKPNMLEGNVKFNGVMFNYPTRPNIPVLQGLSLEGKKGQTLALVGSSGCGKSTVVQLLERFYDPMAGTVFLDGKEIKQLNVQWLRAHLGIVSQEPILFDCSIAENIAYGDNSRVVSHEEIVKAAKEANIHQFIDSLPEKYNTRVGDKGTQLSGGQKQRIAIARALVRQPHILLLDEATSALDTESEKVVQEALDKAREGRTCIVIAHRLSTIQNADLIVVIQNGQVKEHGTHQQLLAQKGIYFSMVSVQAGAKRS

efflux ratio at 1 μM [1]	Ki (human PDE2A1; [2])	Ki (Rhesus PDE2A3; [3])	efflux ratio at 1 μM (P-glycoprotein (P-gp))	Ki (Rhesus PDE2A3; [4])	Ki (human PDE2A1; [5])	SMILES
5.7	0.2 nM	0.18 nM	1.4	–	–	CN(C)c1nc(C(=O)N[C@@H](c2ccc(C(F)(F)F)c(F)c2)C(C)(C)C)cc(=O)[nH]1 [Example 102, 2-(dimethylamino)-N-{(1R)-1-[3-fluoro-4-(trifluoromethyl)phenyl]-2,2-dimethylpropyl}-6-oxo-1,6-dihydropyrimidine-4-carboxamide]
8.2	0.12 nM	0.12 nM	2.2	–	–	CN(C)c1nc(C(=O)N[C@@H](c2ccc(SC(F)(F)F)cc2)C(C)(C)C)cc(=O)[nH]1 [Example 103, 2-(dimethylamino)-N-[(1R)-2,2-dimethyl-1-{4-[(trifluoromethyl)sulfanyl]phenyl}propyl]-6-oxo-1,6-dihydropyrimidine-4-carboxamide]
4.2	1.1 nM	1.1 nM	0.6	0.56 nM	–	CC[C@@H](NC(=O)c1cc(=O)[nH]c(N(C)C)n1)c1ccc(OC(F)(F)F)c(F)c1 [Example 104, 2-(dimethylamino)-N-{(1R)-1-[3-fluoro-4-(trifluoromethoxy)phenyl]propyl}-6-oxo-1,6-dihydropyrimidine-4-carboxamide]
3.7	1.6 nM	1.8 nM	0.5	1 nM	–	CC[C@@H](NC(=O)c1cc(=O)[nH]c(N(C)C)n1)c1ccc(OC(F)(F)F)cc1 [Example 105, 2-(dimethylamino)-6-oxo-N-{(1R)-1-[4-(trifluoromethoxy)phenyl]propyl}-1,6-dihydropyrimidine-4-carboxamide]
3.5	1.3 nM	1.4 nM	0.5	0.81 nM	–	CC[C@@H](NC(=O)c1cc(=O)[nH]c(N(C)C)n1)c1ccc(C(F)(F)F)c(F)c1 [Example 106, 2-(dimethylamino)-N-{(1R)-1-[3-fluoro-4-(trifluoromethyl)phenyl]propyl}-6-oxo-1,6-dihydropyrimidine-4-carboxamide]
2.2	1.7 nM	2.2 nM	0.4	0.93 nM	–	CN(C)c1nc(C(=O)N[C@@H](c2ccc(OC(F)(F)F)cc2)C2CC2)cc(=O)[nH]1 [Example 107, N-{(1R)-cyclopropyl[4-(trifluoromethoxy)phenyl]methyl}-2-(dimethylamino)-6-oxo-1,6-dihydropyrimidine-4-carboxamide]
1.9	1.8 nM	1.3 nM	0.4	0.66 nM	–	CN(C)c1nc(C(=O)N[C@@H](c2ccc(C(F)(F)F)cc2)C2CC2)cc(=O)[nH]1 [Example 108, N-{(1R)-cyclopropyl[4-(trifluoromethyl)phenyl]methyl}-2-(dimethylamino)-6-oxo-1,6-dihydropyrimidine-4-carboxamide]
2.5	1.9 nM	1.4 nM	0.5	0.91 nM	–	CN(C)c1nc(C(=O)N[C@@H](c2ccc(C(F)(F)F)c(F)c2)C2CC2)cc(=O)[nH]1 [Example 109, N-{(1R)-cyclopropyl[3-fluoro-4-(trifluoromethyl)phenyl]methyl}-2-(dimethylamino)-6-oxo-1,6-dihydropyrimidine-4-carboxamide]
3.5	1.3 nM	0.96 nM	0.5	0.48 nM	–	CN(C)c1nc(C(=O)N[C@@H](c2ccc(OC(F)(F)F)c(F)c2)C2CC2)cc(=O)[nH]1 [Example 110, N-{(1R)-cyclopropyl[3-fluoro-4-(trifluoromethoxy)phenyl]methyl}-2-(dimethylamino)-6-oxo-1,6-dihydropyrimidine-4-carboxamide]
2	0.9 nM	0.8 nM	0.3	0.41 nM	–	CN(C)c1nc(C(=O)N[C@@H](c2ccc(SC(F)(F)F)cc2)C2CC2)cc(=O)[nH]1 [Example 111, N-[(R)-cyclopropyl{4-[(trifluoromethyl)sulfanyl]phenyl}methyl]-2-(dimethylamino)-6-oxo-1,6-dihydropyrimidine-4-carboxamide]
4.7	0.55 nM	0.44 nM	0.7	0.27 nM	–	CC(C)[C@@H](NC(=O)c1cc(=O)[nH]c(N(C)C)n1)c1ccc(C(F)(F)F)c(F)c1 [Example 112, 2-(dimethylamino)-N-{(1R)-1-[3-fluoro-4-(trifluoromethyl)phenyl]-2-methylpropyl}-6-oxo-1,6-dihydropyrimidine-4-carboxamide]
3.9	0.63 nM	0.65 nM	0.4	0.36 nM	–	O=C(N[C@@H](c1ccc(C2CC2)cc1)C1CC1)c1cc(=O)[nH]c(N2CCCC2)n1 [Example 113, N-[(R)-cyclopropyl(4-cyclopropylphenyl)methyl]-6-oxo-2-pyrrolidine-1-yl-1,6-dihydropyrimidine-4-carboxamide]
4	1.5 nM	1.5 nM	0.5	0.94 nM	–	O=C(N[C@@H](c1ccc(OC(F)(F)F)cc1)C1CC1)c1cc(=O)[nH]c(N2CCCC2)n1 [Example 114, N-{(R)-cyclopropyl[4-(trifluoromethoxy)phenyl]methyl}-6-oxo-2-pyrrolidin-1-yl-1,6-dihydropyrimidine-4-carboxamide]
1.5	–	–	0.3	32 nM	24 nM	C[C@@H](NC(=O)c1cc(=O)[nH]c(N2CCCCC2)n1)c1ccc(C(F)(F)F)cc1 [Example 131, 6-oxo-2-piperidin-1-yl-N-{(1R)-1-[4-(trifluoromethyl)phenyl]ethyl}-1,6-dihydropyrimidine-4-carboxamide]
1.8	2.3 nM	2.8 nM	0.5	2.5 nM	2 nM	C[C@@H](NC(=O)c1cc(=O)[nH]c(N(C)C)n1)c1ccc(C(F)(F)F)cc1 [Example 133, 2-(dimethylamino)-6-oxo-N-{(1R)-1-[4-(trifluoromethyl)phenyl]ethyl}-1,6-dihydropyrimidine-4-carboxamide]
11.4	–	–	2.7	36 nM	27 nM	CNc1nc(C(=O)N[C@H](C)c2ccc(C(F)(F)F)cc2)cc(=O)[nH]1 [Example 135, 2-(methylamino)-6-oxo-N-{(1R)-1-[4-(trifluoromethyl)phenyl]ethyl}-1,6-dihydropyrimidine-4-carboxamide]
29.8	–	–	1.2	67 nM	38 nM	C[C@@H](NC(=O)c1cc(=O)[nH]c(NC2CCC2)n1)c1ccc(C(F)(F)F)cc1 [Example 138, 2-(cyclobutylamino)-6-oxo-N-{(1R)-1-[4-(trifluoromethyl)phenyl]ethyl}-1,6-dihydropyrimidine-4-carboxamide]
2.5	0.82 nM	0.61 nM	0.5	0.57 nM	0.32 nM	C[C@@H](NC(=O)c1cc(=O)[nH]c(N(C)C)n1)c1ccc(SC(F)(F)F)cc1 [Example 143, 2-(dimethylamino)-6-oxo-N-[(1R)-1-{4-[(trifluoromethyl)sulfanyl]phenyl}ethyl]-1,6-dihydropyrimidine-4-carboxamide]
14.2	–	–	3.3	5.7 nM	3.4 nM	CNc1nc(C(=O)N[C@H](C)c2ccc(SC(F)(F)F)cc2)cc(=O)[nH]1 [Example 144, 2-(methylamino)-6-oxo-N-[(1R)-1-{4-[(trifluoromethyl)sulfanyl]phenyl}ethyl]-1,6-dihydro-pyrimidine-4-carboxamide]
28.9	–	–	3.2	35 nM	23 nM	C[C@@H](NC(=O)c1cc(=O)[nH]c(N)n1)c1ccc(SC(F)(F)F)cc1 [Example 145, 2-amino-6-oxo-N-[(1R)-1-{4-[(trifluoromethyl)sulfanyl]phenyl}ethyl]-1,6-dihydro-pyrimidine-4-carboxamide]
5.4	–	–	0.9	0.43 nM	0.36 nM	C[C@@H](NC(=O)c1cc(=O)[nH]c(N2CCCC2)n1)c1ccc(SC(F)(F)F)cc1 [Example 146, 6-oxo-2-pyrrolidin-1-yl-N-[(1R)-1-{4-[(trifluoromethyl)sulfanyl]phenyl}ethyl]-1,6-dihydro-pyrimidine-4-carboxamide]
5.9	0.26 nM	0.15 nM	0.7	0.19 nM	–	CC(C)[C@@H](NC(=O)c1cc(=O)[nH]c(N2CCCC2)n1)c1ccc(SC(F)(F)F)cc1 [Example 147, N-[(1R)-2-methyl-1-{4-[(trifluoromethyl)sulfanyl]phenyl}propyl]-6-oxo-2-pyrrolidin-1-yl-1,6-dihydropyrimidine-4-carboxamide]
